{"source": "patent US8975078B2", "about": "“Method for expressing a mouse olfactory receptor Olfr15 on a cell membrane” (Panasonic Corporation, priority 2011, dated 2015)", "key": {"[1]": {"system": "mouse olfactory receptor Olfr15", "assay": "Expression rate of mouse olfactory receptor Olfr15 on the cell membrane of transfected HEK293T cells (immunofluorescence)", "format": "cell-based"}, "[2]": {"system": "HEK293T cells", "assay": "Cell viability rate of transfected HEK293T cells at the time of immunofluorescence", "format": "cell-based", "description": "The liquid culture medium containing HEK293T cells was added into a Petri dish. The HEK293T cells adhered spontaneously to the inner wall of the Petri dish.\nThe plasmid (RTP1S), the plasmid (Rho-myc-Olfr15), and a plasmid (purchased from Evrogen, trade name: pMkate2) coding for a membrane marker were added to the Petri dish, and the HEK293T cells were transfected with these three plasmids by a lipofection method. The liquid culture medium was maintained under an air atmosphere containing 5% CO2 under a temperature of 37 degrees Celsius. In this way, as shown in the uppermost part of FIG. 4, the vessel containing the transformed HEK293 cells and the liquid culture medium was prepared.\nTwenty four hours after the transfection, a liquid culture medium containing chlorpromazine was added into the vessel. […]\nSubsequently, the liquid culture medium was removed. Then, the liquid culture medium not containing chlorpromazine (see FIG. 2) was added to the vessel. Thus, the liquid culture medium was exchanged.\nFour hours after the exchange of the liquid culture medium, the distribution of the mouse olfactory receptor Olfr15 on the cell membrane was evaluated in accordance with the immunofluorescence technique disclosed in Non Patent Literature 2. For example, the expression rate on the cell membrane and the cell viability rate were calculated in accordance with the following formulas. (Expression rate on the cell membrane)=(fluorescence intensity on the cell membrane)/(fluorescence intensity of one entire cell) (Cell viability rate)=(the number of the living cells when the immunofluorescence technique was performed)/(the number of all the cells when the immunofluorescence technique was performed)\nFor example, the expression rate and the cell viability rate of not less than ten cells were calculated. Then, each of the average value of these rates was calculated. “Expression rate on the cell membrane” and “Cell viability rate” described in Table 3 are the average rates thereof."}, "[3]": {"settings": "chlorpromazine 5 μg/ml, immersion time 0.5 hour"}, "[4]": {"settings": "chlorpromazine 5 μg/ml, immersion time 1 hour"}, "[5]": {"settings": "chlorpromazine 5 μg/ml, immersion time 2 hour"}, "[6]": {"settings": "chlorpromazine 5 μg/ml, immersion time 4 hour"}, "[7]": {"settings": "chlorpromazine 5 μg/ml, immersion time 9 hour"}, "[8]": {"settings": "chlorpromazine 5 μg/ml, immersion time 20 hour"}, "[9]": {"settings": "chlorpromazine 10 μg/ml, immersion time 0.5 hour"}, "[10]": {"settings": "chlorpromazine 10 μg/ml, immersion time 1 hour"}, "[11]": {"settings": "chlorpromazine 10 μg/ml, immersion time 2 hour"}, "[12]": {"settings": "chlorpromazine 10 μg/ml, immersion time 4 hour"}, "[13]": {"settings": "chlorpromazine 10 μg/ml, immersion time 9 hour"}, "[14]": {"settings": "chlorpromazine 10 μg/ml, immersion time 20 hour"}, "[15]": {"settings": "chlorpromazine 25 μg/ml, immersion time 0.5 hour"}, "[16]": {"settings": "chlorpromazine 25 μg/ml, immersion time 1 hour"}, "[17]": {"settings": "chlorpromazine 25 μg/ml, immersion time 2 hour"}}}
{"compound": "CN(C)CCCN1c2ccccc2Sc2ccc(Cl)cc21", "note": "[chlorpromazine]", "values": [{"measurement": "Expression rate on the cell membrane (%)", "setting": "[1]; Comparative Example 2: as Example 1 (chlorpromazine 25 μg/ml, 20 hour) but plasmid (RTP1S) not used", "result": 9.7, "unit": "%"}, {"measurement": "Expression rate on the cell membrane (%)", "setting": "[1]; [3]", "result": 11.8, "unit": "%"}, {"measurement": "Expression rate on the cell membrane (%)", "setting": "[1]; [4]", "result": 8.1, "unit": "%"}, {"measurement": "Expression rate on the cell membrane (%)", "setting": "[1]; [5]", "result": 12.3, "unit": "%"}, {"measurement": "Expression rate on the cell membrane (%)", "setting": "[1]; [6]", "result": 8.5, "unit": "%"}, {"measurement": "Expression rate on the cell membrane (%)", "setting": "[1]; [7]", "result": 11.5, "unit": "%"}, {"measurement": "Expression rate on the cell membrane (%)", "setting": "[1]; [8]", "result": 14.1, "unit": "%"}, {"measurement": "Expression rate on the cell membrane (%)", "setting": "[1]; [9]", "result": 9.6, "unit": "%"}, {"measurement": "Expression rate on the cell membrane (%)", "setting": "[1]; [10]", "result": 9.9, "unit": "%"}, {"measurement": "Expression rate on the cell membrane (%)", "setting": "[1]; [11]", "result": 19.7, "unit": "%"}, {"measurement": "Expression rate on the cell membrane (%)", "setting": "[1]; [12]", "result": 16.7, "unit": "%"}, {"measurement": "Expression rate on the cell membrane (%)", "setting": "[1]; [13]", "result": 17.4, "unit": "%"}, {"measurement": "Expression rate on the cell membrane (%)", "setting": "[1]; [14]", "result": 19.2, "unit": "%"}, {"measurement": "Expression rate on the cell membrane (%)", "setting": "[1]; [15]", "result": 15.1, "unit": "%"}, {"measurement": "Expression rate on the cell membrane (%)", "setting": "[1]; [16]", "result": 29.5, "unit": "%"}, {"measurement": "Expression rate on the cell membrane (%)", "setting": "[1]; [17]", "result": 24.0, "unit": "%"}, {"measurement": "Expression rate on the cell membrane (%)", "setting": "[1]; chlorpromazine 25 μg/ml, immersion time 20 hour, HEK293T with RTP1S and Rho-myc-Olfr15 plasmids, 4 h after medium exchange", "result": 28.4, "unit": "%"}, {"measurement": "expression rate of the olfactory receptor Olfr15 on the cell membrane (change when added)", "setting": "[1]; statement on Table 3, versus medium without chlorpromazine", "result": "increases"}, {"measurement": "Cell viability rate (%)", "setting": "[2]; [3]", "result": 81, "unit": "%"}, {"measurement": "Cell viability rate (%)", "setting": "[2]; [4]", "result": 88, "unit": "%"}, {"measurement": "Cell viability rate (%)", "setting": "[2]; [5]", "result": 89, "unit": "%"}, {"measurement": "Cell viability rate (%)", "setting": "[2]; [6]", "result": 82, "unit": "%"}, {"measurement": "Cell viability rate (%)", "setting": "[2]; [7]", "result": 79, "unit": "%"}, {"measurement": "Cell viability rate (%)", "setting": "[2]; [8]", "result": 68, "unit": "%"}, {"measurement": "Cell viability rate (%)", "setting": "[2]; [9]", "result": 89, "unit": "%"}, {"measurement": "Cell viability rate (%)", "setting": "[2]; [10]", "result": 82, "unit": "%"}, {"measurement": "Cell viability rate (%)", "setting": "[2]; [11]", "result": 84, "unit": "%"}, {"measurement": "Cell viability rate (%)", "setting": "[2]; [12]", "result": 81, "unit": "%"}, {"measurement": "Cell viability rate (%)", "setting": "[2]; [13]", "result": 41, "unit": "%"}, {"measurement": "Cell viability rate (%)", "setting": "[2]; [14]", "result": 50, "unit": "%"}, {"measurement": "Cell viability rate (%)", "setting": "[2]; [15]", "result": 89, "unit": "%"}, {"measurement": "Cell viability rate (%)", "setting": "[2]; [16]", "result": 55, "unit": "%"}, {"measurement": "Cell viability rate (%)", "setting": "[2]; [17]", "result": 41, "unit": "%"}, {"measurement": "Cell viability rate (%)", "setting": "[2]; chlorpromazine 25 μg/ml, immersion time 20 hour", "result": 11, "unit": "%"}]}
{"compound": "OC[C@H]1O[C@@](CO)(O[C@H]2O[C@H](CO)[C@@H](O)[C@H](O)[C@H]2O)[C@@H](O)[C@@H]1O", "note": "[sucrose]", "values": [{"measurement": "Expression rate on the cell membrane (%)", "setting": "[1]; Comparative Example 4: sucrose 250 mM instead of chlorpromazine, otherwise as Example 1", "result": 12.5, "unit": "%"}]}
